Entries after “also recorded” stand apart in the source; their conditions may differ. Where no end group is shown, it is not given here.
Experiments:
[1] = system: INS-1E cells; assay: transferrin recycling in INS-1E cells; type: cell-based; conditions: 30 minutes, KH7 30 μM
Procedure: (§1) Briefly, cells (passage 140-150) were plated at 2.5×10^5 cells/well in a 24 well plate and permitted to recover for two days. Cells were glucose starved by incubation for 1 hour in the presence of 2.5 mM glucose KRB medium supplemented with 2 mM sodium bicarbonate, 10 mM Hepes, and 0.1% BSA. After washing, cells were incubated in KRB with either 2.5 mM or 16 mM glucose in the presence of either vehicle control (DMSO or MeOH) or indicated drug. After the indicated time, removed media was cleared of cell debris and secreted insulin was measured by Insulin ELISA kit (Linco Research, St. Charles, Mo., or ALPCO, Windham, N.H.). If cAMP was to be concomitantly measured, cells were pre-treated with IBMX for the final 10 minutes of the glucose starvation and IBMX was included in all subsequent incubations. For the washout experiment, subsequent to initial insulin determination, cells treated with KH7 were placed in fresh KRB (2.5 mM glucose) for an additional hour and insulin release was measured as above in the absence of any added drug. For transferrin recycling, loading of cells with I^125 transferrin was performed during hour incubation in 2.5 mM glucose KRB.

[2] = system: primary mouse islets; assay: insulin release from isolated mouse islets; type: cell-based; conditions: 16.7 mM glucose, 30 minutes, 30 μM KH7
Procedure: After several washes with Hank's Balanced Salt Solution, islets were hand-picked and 15-20 islets were distributed into each well of a 12 well plate to adhere overnight in RPMI-1640 media supplemented with 10 mM HEPES, 5.6 mM glucose, 10% FBS, 2 mM L-glutamine, 1 mM sodium pyruvate, and antibiotics.
Insulin release from isolated islets was performed in 12 well plates. Islets were preincubated in KRB (2.8 mM glucose) for 1 hour followed by incubation for 30 minutes in 2.8 mM glucose KRB in the presence of drug. The same wells were then incubated for an additional 30 minutes in 16.7 mM glucose KRB in the presence of the same drugs. Media was removed, cleared of cells, and insulin was measured.

[3] = system: cAMP in INS-1E cells; assay: intracellular cAMP in INS-1E cells; type: cell-based; conditions: for effect on cAMP induced by high glucose: 16 mM glucose, 30 μM KH7, 30 μM KH7.15, 50 μM 2-hydroxyestradiol, 50 μM 2′5′ddAdo; for cAMP generation in low glucose: 2.5 mM glucose, 15 minutes, 10 nM glucagon
Procedure: as §1

[4] = system: INS-1E cells; assay: insulin release in INS-1E cells; type: cell-based; conditions: for effect on glucose-stimulated insulin secretion (GSIS): 30 μM KH7, 30 μM KH7.15, 50 μM 2-hydroxyestradiol, 50 μM 2′5′ddAdo; for insulin release in low glucose: 2.5 mM glucose, 10 nM glucagon
Procedure: as §1

[5] = target: T1, purified recombinant human sACt protein (Homo sapiens, UniProt Q96PN6); assay: in vitro adenylyl cyclase assay on purified recombinant human sACt protein
T1 sequence (Q96PN6 1-469 limits assumed): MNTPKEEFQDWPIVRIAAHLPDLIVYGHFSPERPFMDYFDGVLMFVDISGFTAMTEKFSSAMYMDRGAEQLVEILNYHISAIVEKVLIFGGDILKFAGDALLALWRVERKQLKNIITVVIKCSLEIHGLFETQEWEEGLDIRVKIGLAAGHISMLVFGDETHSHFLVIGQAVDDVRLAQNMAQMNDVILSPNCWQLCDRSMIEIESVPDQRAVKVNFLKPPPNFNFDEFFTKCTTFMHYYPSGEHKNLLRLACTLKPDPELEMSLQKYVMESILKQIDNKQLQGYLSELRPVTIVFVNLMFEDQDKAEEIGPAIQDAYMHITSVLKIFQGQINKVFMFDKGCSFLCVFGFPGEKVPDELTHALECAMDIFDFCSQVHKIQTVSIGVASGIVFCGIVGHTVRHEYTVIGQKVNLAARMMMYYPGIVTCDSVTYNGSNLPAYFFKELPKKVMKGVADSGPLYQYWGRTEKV
Procedure: (§2) In vitro adenylyl cyclase assays were performed on purified recombinant human sACt protein as previously described in Litvin et al., “Kinetic Properties of “Soluble” Adenylyl Cyclase.

[6] = system: tmACs; assay: adenylyl cyclase activity in forskolin stimulated INS-1E cell lysate; conditions: forskolin (10 μM) stimulated INS-1E
Procedure: as §2

[7] = system: CREB phosphorylation in isolated nuclei; assay: phospho-CREB immunocytochemistry of isolated nuclei; type: biochemical; conditions: 10 min; 40 mM sodium bicarbonate, 1 mM 8-Br cAMP, 10 μM forskolin
Procedure: Cell Signaling Technologies) overnight at 4° C. Staining was visualized by incubation with goat anti-rabbit Alexa Fluor 488 (Molecular Probes) for 1 h at room temperature, treated with DAPI for 5 min, and washed and mounted with gelvatol/DABCO (Sigma-Aldrich). Fluorescent images were recorded by a digital camera (Hamamatsu, Bridgewater, N.J.) connected to an inverted epifluorescent microscope (Nikon, Melville, N.Y.). Images were taken at the same exposure time and gain, and all photographic manipulations were performed equally. Phospho-CREB-positive nuclei were quantified in multiple fields from each stained slide by a blinded experimenter. […] Nuclei were also treated with DAPI to differentiate intact nuclei from membrane ghosts. DAPI-positive nuclei were scored for phosho-CREB immunofluorescence. Nuclei with detectable staining (FIG. 6A, NaHCO3) were considered positive for CREB phosphorylation, whereas nuclei with no detectable staining (FIG. 6A, Basal) were counted as negative. Multiple microscopic fields were photographed for each condition, and data was combined from three to five separate experiments.

[8] = system: CREB phosphorylation in isolated nuclei; assay: CREB phosphorylation in isolated HeLa nuclei (P2), Western analysis; type: biochemical; conditions: for relative intensity of phospho-CREB band normalized to basal: basal 1 U, 1 mM 8-Br cAMP, 40 mM bicarbonate alone or plus 10 μM H-89 or 1 mM 8-Br-RpcAMPs
Procedure: The resuspended pellet and 60% OptiPrep iodixanol were mixed (30% OptiPrep final) and centrifuged at 10,000 g for 20 min. The supernatant was removed and the nuclei-enriched pellet (P2) was resuspended in TM-2 buffer without detergent.
Reactions were stopped by the addition of 20 μl of SDS sample buffer (CREB phosphorylation) or by being placed into a 100° C. heat block for 3 min (adenylyl cyclase).
For whole cell and isolated nuclei CREB phosphorylation assays, equal cell or nuclear equivalents were separated under reducing conditions using a 10% SDS-PAGE, transferred to a PVDF membrane, and probed for CREB (rabbit polyclonal antiserum; Chemicon, Temecula, Calif.) and phosphorylated CREB (rabbit polyclonal antiserum; Upstate Biotechnology, Temecula, Calif.). HRP-conjugated secondary antibodies were used, and bands were visualized using ECL. Image analysis software (model Fluorchem 8800; Alpha Innotech, San Leandro, Calif.) was used to quantitate Western results. Intensities of phospho-CREB bands were normalized to total CREB.

[9] = target: T2, purified sperm isoform of sAC protein (pure sAC) (Homo sapiens, UniProt Q96PN6); assay: in vitro cyclase activity of purified sAC protein (Table 1); type: biochemical
T2 construct: generated against human 48-kD isoform of sAC (sACt) antigen; made in house
T2 sequence (Q96PN6 1-469 limits assumed): T1 sequence (Q96PN6 1-469 limits assumed)

[10] = system: tmACs; assay: cAMP forming activity inside cells stimulated with forskolin; type: cell-based; conditions: read-out: in vivo IC50 tmAC (FSK)
[11] = target: T3, sAC (Homo sapiens, UniProt Q96PN6); assay: cAMP forming activity inside cells stably overexpressing sAC; type: cell-based; conditions: read-out: in vivo IC50 sAC (basal)
T3 construct: expressed in transfected cells
T3 sequence (Q96PN6 whole entry, species assumed): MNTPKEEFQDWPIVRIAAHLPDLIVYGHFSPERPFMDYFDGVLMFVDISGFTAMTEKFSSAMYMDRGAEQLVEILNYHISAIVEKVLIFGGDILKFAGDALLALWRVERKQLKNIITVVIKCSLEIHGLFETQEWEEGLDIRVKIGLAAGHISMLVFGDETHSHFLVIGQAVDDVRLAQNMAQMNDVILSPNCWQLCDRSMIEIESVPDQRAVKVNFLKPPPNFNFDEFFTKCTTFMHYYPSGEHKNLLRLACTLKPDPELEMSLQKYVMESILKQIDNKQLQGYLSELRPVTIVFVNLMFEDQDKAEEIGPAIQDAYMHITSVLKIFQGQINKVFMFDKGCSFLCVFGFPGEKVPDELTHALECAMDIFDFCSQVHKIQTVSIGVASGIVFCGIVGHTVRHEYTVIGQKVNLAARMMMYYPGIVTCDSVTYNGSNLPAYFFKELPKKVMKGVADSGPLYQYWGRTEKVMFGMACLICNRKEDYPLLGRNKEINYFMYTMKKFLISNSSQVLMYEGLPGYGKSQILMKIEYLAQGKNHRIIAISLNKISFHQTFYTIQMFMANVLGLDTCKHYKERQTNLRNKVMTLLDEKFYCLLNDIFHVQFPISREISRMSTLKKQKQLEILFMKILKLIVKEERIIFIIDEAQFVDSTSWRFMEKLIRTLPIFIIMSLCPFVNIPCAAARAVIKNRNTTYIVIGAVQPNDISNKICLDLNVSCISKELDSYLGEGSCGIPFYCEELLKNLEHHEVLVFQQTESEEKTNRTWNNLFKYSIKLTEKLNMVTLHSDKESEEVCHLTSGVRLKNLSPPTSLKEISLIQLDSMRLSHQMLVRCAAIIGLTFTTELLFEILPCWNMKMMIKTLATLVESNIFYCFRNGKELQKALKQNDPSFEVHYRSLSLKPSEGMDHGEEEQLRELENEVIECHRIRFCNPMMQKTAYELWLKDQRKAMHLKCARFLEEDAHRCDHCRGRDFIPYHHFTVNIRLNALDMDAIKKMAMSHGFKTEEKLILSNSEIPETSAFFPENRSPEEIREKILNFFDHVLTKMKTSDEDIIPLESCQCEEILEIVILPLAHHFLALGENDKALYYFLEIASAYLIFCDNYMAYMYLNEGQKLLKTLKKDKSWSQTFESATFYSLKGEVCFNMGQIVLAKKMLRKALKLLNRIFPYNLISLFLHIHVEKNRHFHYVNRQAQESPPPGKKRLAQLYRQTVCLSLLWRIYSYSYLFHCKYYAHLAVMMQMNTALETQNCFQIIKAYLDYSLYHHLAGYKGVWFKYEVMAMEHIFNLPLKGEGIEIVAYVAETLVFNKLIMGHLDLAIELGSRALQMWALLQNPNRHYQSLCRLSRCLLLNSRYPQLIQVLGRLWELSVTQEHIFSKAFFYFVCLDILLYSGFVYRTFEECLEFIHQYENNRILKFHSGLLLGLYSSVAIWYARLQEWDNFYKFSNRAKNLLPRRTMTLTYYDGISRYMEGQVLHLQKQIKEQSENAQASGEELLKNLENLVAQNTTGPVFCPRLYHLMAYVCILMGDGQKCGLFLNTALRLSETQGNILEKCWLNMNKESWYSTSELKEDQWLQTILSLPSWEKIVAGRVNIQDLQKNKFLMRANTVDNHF

[12] = target: T4, purified solubilized version of Type VII tmAC (sol.AC7) (Homo sapiens, UniProt P51828); assay: in vitro cyclase activity of purified solubilized Type VII tmAC; type: biochemical; conditions: read-out: in vitro IC50 pure sol.AC7
T4 construct: a mixture of purified catalytic domains, C1 and C2, from Type VII tmAC; made in house
T4 sequence (P51828 279-406 limits assumed): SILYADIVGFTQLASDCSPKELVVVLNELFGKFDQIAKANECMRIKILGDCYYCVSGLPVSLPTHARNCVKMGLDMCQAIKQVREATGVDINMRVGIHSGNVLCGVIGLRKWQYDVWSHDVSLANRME
T4 sequence (P51828 879-1023 limits assumed): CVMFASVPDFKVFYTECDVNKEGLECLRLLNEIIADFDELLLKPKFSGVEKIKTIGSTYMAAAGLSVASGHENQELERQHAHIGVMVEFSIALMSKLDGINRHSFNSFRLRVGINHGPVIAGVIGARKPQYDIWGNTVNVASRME

[13] = target: T5, Type II tmAC (tmAC in extracts) (Homo sapiens, UniProt Q08462); assay: in vitro cyclase activity in extracts of cells overexpressing Type II tmAC; type: biochemical; conditions: unit inferred
T5 construct: expressed in transfected cells
T5 sequence (Q08462 whole entry): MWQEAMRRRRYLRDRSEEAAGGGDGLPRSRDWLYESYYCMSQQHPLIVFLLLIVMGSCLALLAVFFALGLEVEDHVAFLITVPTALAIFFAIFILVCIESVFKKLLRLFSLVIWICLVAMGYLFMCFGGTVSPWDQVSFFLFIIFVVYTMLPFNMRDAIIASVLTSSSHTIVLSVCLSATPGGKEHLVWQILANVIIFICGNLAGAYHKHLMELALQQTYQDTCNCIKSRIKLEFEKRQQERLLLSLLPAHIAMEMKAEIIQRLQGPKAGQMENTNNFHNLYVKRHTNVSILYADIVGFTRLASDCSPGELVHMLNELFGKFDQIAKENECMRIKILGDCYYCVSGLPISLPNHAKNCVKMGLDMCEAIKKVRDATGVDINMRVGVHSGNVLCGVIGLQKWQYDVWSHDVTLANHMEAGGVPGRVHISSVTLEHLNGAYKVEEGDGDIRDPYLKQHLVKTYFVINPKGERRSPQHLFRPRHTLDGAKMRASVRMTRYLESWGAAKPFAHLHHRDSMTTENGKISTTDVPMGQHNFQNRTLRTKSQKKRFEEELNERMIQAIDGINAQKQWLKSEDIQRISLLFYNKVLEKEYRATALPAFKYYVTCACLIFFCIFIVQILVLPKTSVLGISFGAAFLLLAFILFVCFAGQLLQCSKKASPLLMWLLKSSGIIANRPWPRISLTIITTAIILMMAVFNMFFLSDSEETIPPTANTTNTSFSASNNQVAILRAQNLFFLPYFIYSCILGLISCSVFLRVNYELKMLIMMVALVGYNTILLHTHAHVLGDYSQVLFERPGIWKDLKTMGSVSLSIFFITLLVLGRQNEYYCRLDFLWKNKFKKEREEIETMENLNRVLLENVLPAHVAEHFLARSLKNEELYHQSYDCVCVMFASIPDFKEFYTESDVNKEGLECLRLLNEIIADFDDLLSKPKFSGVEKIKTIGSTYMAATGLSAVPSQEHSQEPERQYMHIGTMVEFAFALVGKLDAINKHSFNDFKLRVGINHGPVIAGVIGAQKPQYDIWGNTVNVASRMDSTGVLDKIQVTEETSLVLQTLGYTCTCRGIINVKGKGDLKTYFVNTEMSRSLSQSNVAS

[14] = target: T6, sperm sAC (sAC in extracts) (UniProt Q96PN6); assay: in vitro cyclase activity in whole cell extracts from cells overexpressing sperm sAC cDNA; type: biochemical; conditions: unit inferred
T6 construct: whole cell extracts from cells overexpressing sperm sAC cDNA (sAC in extracts)

[15] = system: PfAC; assay: adenylyl cyclase activity in whole cell extract of isolated parasites; type: biochemical, Plasmodium falciparum
[16] = system: Plasmodium falciparum; assay: Plasmodium falciparum viability, luciferase assay; type: cell-based
Procedure: . Plasmodium cultures were incubated in the indicated concentrations of KH7 or KH7.15 for 24 hours and viability assessed by luciferase assay (FIG. 16A). […].
Therefore, the effect of sAC inhibitors on P. falciparum viability was tested. […].

C[C@]12CC[C@@H]3c4cc(O)c(O)cc4CC[C@H]3[C@@H]1CC[C@@H]2O [2-hydroxyestradiol, reference compound]
effect on transferrin recycling [1]: unaffected | effect on insulin release induced by high glucose in islets [2]: inhibited insulin release induced by high glucose | effect on cAMP induced by high glucose [3]: blocked the cAMP induced by the presence of high glucose | effect on glucose-stimulated insulin secretion (GSIS) ([4]; 16 mM glucose): completely inhibited GSIS

C[C@H]1O[C@@H](n2cnc3c(N)ncnc32)C[C@@H]1O [2′5′ddAdo, 2′5′ dideoxyadenosine]
effect on sAC ([5]; bicarbonate/calcium stimulated pure sAC, concentrations up to 300 μM): did not significantly affect sAC; also recorded: inert towards sAC | effect on cAMP induced by high glucose [3]: partially decreased glucose-induced cAMP generation | effect on tmACs [6]: potent inhibitor of tmACs

Nc1ncnc2c1nc(Br)n2[C@@H]1O[C@@H]2COP(=O)(O)O[C@H]2[C@H]1O [8-Br-cAMP]
percentage of phospho-CREB-positive nuclei relative to basal [7]: at least a twofold rise | relative intensity of phospho-CREB band normalized to basal [8]: 30 U | increase in CREB phosphorylation ([8]; isolated nuclei, Western): 30 fold

CC(C)Cn1c(=O)n(C)c(=O)c2[nH]cnc21 [IBMX, reference compound]
restoration of GSIS in the presence of KH7 ([4]; 0.5 mM IBMX, 30 μM KH7): did not restore GSIS in the presence of KH7 inhibition | enhancement of GSIS ([4]; 0.5 mM IBMX, 16 mM glucose, 15 minutes): at least 2 fold

CCCCOc1ccc(C2=N/C(=C\C(Br)=C\c3ccccc3)C(=O)O2)cc1 [KH1]
IC50 ([9]; μM): 23 µM | IC50 [10]: > 500 µM | IC50 [11]: > 500 µM | IC50 [12]: > 200 µM

COc1ccc(/C=C2\C(=O)N(c3nc(-c4ccc(Cl)cc4)cs3)N=C2c2ccccc2)cc1OC [KH2]
IC50 [13]: > 100 µM | IC50 [14]: > 100 µM | IC50 ([9]; μM): 2 µM | IC50 [10]: > 500 µM | IC50 [11]: > 500 µM | IC50 [12]: > 400 µM

Cc1ccc(C)c(N2C(=O)/C(=C/c3ccc(Cl)cc3)C=C2c2ccccc2)c1 [KH3]
IC50 [13]: > 100 µM | IC50 [14]: > 100 µM | IC50 ([9]; μM): 8 µM | IC50 [10]: > 500 µM | IC50 [11]: > 500 µM | IC50 [12]: > 500 µM

Cc1ccccc1N1C(=O)/C(=C/c2ccc(-c3ccc(Cl)c(Cl)c3)o2)C=C1c1ccccc1 [KH4]
IC50 [13]: > 100 µM | IC50 [14]: > 100 µM | IC50 ([9]; μM): 6 µM | IC50 [10]: > 500 µM | IC50 [11]: > 500 µM | IC50 [12]: > 27 µM

COc1ccc(Br)cc1/C=N/NC(=O)CSc1nc2ccccc2[nH]1 [KH7.05]
IC50 ([9]; unit inferred): ~30 µM | IC50 [10]: > 200 µM | IC50 [11]: 30 µM

O=C(CSc1nc2ccccc2[nH]1)N/N=C/c1c(F)cccc1Cl [KH7.06]
IC50 ([9]; unit inferred): ~30 µM

O=C(CSc1nc2ccccc2[nH]1)N/N=C/c1cc(Br)ccc1O [KH7.07]
IC50 ([9]; μM): 30 µM | IC50 [10]: > 200 µM | IC50 [11]: 30 µM

Cc1ccsc1/C=N/NC(=O)CSc1nc2ccccc2n1Cc1ccccc1 [KH7.10]
IC50 ([9]; unit inferred): 80 µM

CCn1c(SCC(=O)N/N=C/c2cc(Br)ccc2O)nc2ccccc21 [KH7.13]
IC50 ([9]; unit inferred): 75 µM

COc1cc(/C=N/NC(=O)CSc2nc3ccccc3[nH]2)ccc1O [KH7.15]
effect on cyclase activity of purified sAC ([5]; bicarbonate (40 mM) and calcium (0.5 mM)): inert | dose required to inhibit PfAC activity [15]: ≥ 100 µM | lower affinity for inhibiting PfAC activity relative to KH7 [15]: 10 fold | effect on cAMP induced by high glucose [3]: not | effect on tmACs [6]: inert | effect on glucose-stimulated insulin secretion (GSIS) ([4]; 16 mM glucose): did not affect insulin secretion | dose required to kill parasites [16]: ≥ 100 µM | lower affinity for killing P. falciparum relative to KH7 [16]: 10 fold

Nc1ncnc2c1ncn2[C@@H]1O[C@@H]2CO[P@@](O)(=S)O[C@H]2[C@H]1O [RpcAMPs]
relative intensity of phospho-CREB band normalized to basal [8]: 8 U | reduction of CREB phosphorylation induced by bicarbonate ([8]; isolated nuclei, 40 mM bicarbonate): 70%

GLP-1: hormone stimulating tmACs (HAEGTFTSDVSSYLEGQAAKEFIAWLVKGR; ends and bridges not checked; UniProt P01275 98-127, looked up) [reference compound]
cAMP generation in low glucose [3]: three fold increase in cAMP generation | insulin release in low glucose ([4]; 15 minutes): no significant increase in insulin release

glucagon: hormone stimulating tmACs [reference compound]
cAMP generation in low glucose [3]: three fold increase in cAMP generation | insulin release in low glucose ([4]; 15 minutes): no significant increase in insulin release
